Source: article PMC7862507, “Adrenomedullin for steroid-resistant ulcerative colitis: a randomized, double-blind, placebo-controlled phase-2a clinical trial” (Journal of Gastroenterology, 2020)

Tests used:
[1] = tested on: patients with steroid-resistant UC; assay: Adverse events, safety assessment; details: for Palpitation (cardiovascular disorders) / Rash / Headache (nervous system disorders) / Increase of transaminase / Muscle pain, back pain / Any adverse events / Decrease of blood pressure (cardiovascular disorders) / Flushing (cardiovascular disorders) / Gastrointestinal disorders / Head disconfort (nervous system disorders): patients with event (%); for Palpitation (cardiovascular disorders) / Rash / Decrease of blood pressure (cardiovascular disorders) / Flushing (cardiovascular disorders) / Gastrointestinal disorders / Head disconfort (nervous system disorders) / Severe adverse events: placebo 0; for Headache (nervous system disorders) / Serious adverse events: placebo 1 (14%); for Increase of transaminase / Muscle pain, back pain: placebo 2 (29%); for Any adverse events: placebo 4 (57%); for Severe adverse events / Serious adverse events: patients with event
Procedure: Safety evaluations including the evaluation of adverse events (AEs) and serious adverse events (SAEs) were conducted throughout the study. Vital signs, blood and urine tests, and a 12-lead ECG were performed at specified times after administration, with monitoring of ECG being assessed from the beginning of every test drug administration until 2 h after the administration.
All data, except for the PK parameters, were collected using an electronic data collection system (Viedoc) and analyzed by Intellim (Tokyo, Japan), an independent CRO. […] The population included in the safety analysis were all patients who received at least 1 day of administration of the test drug. […] The significant level for each test was 5%. All analyses were performed using SAS version 9.3 (SAS Institute, Cary, NC, USA). […] All data are shown as mean ± standard deviation (SD).

[2] = Plasma concentration of adrenomedullin (pharmacokinetics); details: human, intravenous
Procedure: Serum concentrations of AM were assessed at predose, 4 and 8 h, and 2 h after administration (10 h after the start of drug administration) on 1, 8, and 14 days of the administration. […] Measurements and data processing were carried by the Bozo Research Centre (Tsukuba, Japan). The evaluated pharmacokinetic (PK) parameters included the maximum measured plasma concentration (Cmax); the time to maximum measured plasma concentration (Tmax); and the cumulative area under the plasma concentration–time curve (AUC) from time 0 to time 10 h.
The Cmax and Tmax values were obtained directly from the data, while the AUC was calculated using the Phoenix WinNonlin software 6·1 (Pharsight, CA, USA). All data are shown as mean ± standard deviation (SD).

- AUC(0-t) ([2]; 5 ng/kg/min): 0.152 ± 0.034 ng·h/mL
- AUC(0-t) ([2]; 10 ng/kg/min): 0.281 ± 0.039 ng·h/mL
- AUC(0-t) ([2]; 15 ng/kg/min): 0.44 ± 0.191 ng·h/mL
SMILES: CC[C@H](C)[C@H](NC(=O)[C@H](CCC(N)=O)NC(=O)[C@H](Cc1c[nH]cn1)NC(=O)[C@H](C)NC(=O)[C@H](CC(C)C)NC(=O)[C@H](CCCCN)NC(=O)[C@H](CCC(N)=O)NC(=O)[C@@H](NC(=O)[C@@H](NC(=O)[C@@H]1CSSC[C@H](NC(=O)CNC(=O)[C@H](Cc2ccccc2)NC(=O)[C@H](CO)NC(=O)[C@H](CCCNC(=N)N)NC(=O)[C@H](CC(C)C)NC(=O)CNC(=O)[C@H](CCC(N)=O)NC(=O)[C@H](Cc2ccccc2)NC(=O)[C@H](CC(N)=O)NC(=O)[C@H](CC(N)=O)NC(=O)[C@H](CCSC)NC(=O)[C@H](CO)NC(=O)[C@H](CCC(N)=O)NC(=O)[C@H](CCCNC(=N)N)NC(=O)[C@@H](N)Cc2ccc(O)cc2)C(=O)N[C@@H](CCCNC(=N)N)C(=O)N[C@@H](Cc2ccccc2)C(=O)NCC(=O)N[C@@H]([C@@H](C)O)C(=O)N1)[C@@H](C)O)C(C)C)C(=O)N[C@@H](Cc1ccc(O)cc1)C(=O)N[C@@H](CCC(N)=O)C(=O)N[C@@H](Cc1ccccc1)C(=O)N[C@H](C(=O)N[C@@H](CC(=O)O)C(=O)N[C@@H](CCCCN)C(=O)N[C@@H](CC(=O)O)C(=O)N[C@@H](CCCCN)C(=O)N[C@@H](CC(=O)O)C(=O)N[C@@H](CC(N)=O)C(=O)N[C@H](C(=O)N[C@@H](C)C(=O)N1CCC[C@H]1C(=O)N[C@@H](CCCNC(=N)N)C(=O)N[C@@H](CO)C(=O)N[C@@H](CCCCN)C(=O)N[C@H](C(=O)N[C@@H](CO)C(=O)N1CCC[C@H]1C(=O)N[C@@H](CCC(N)=O)C(=O)NCC(=O)N[C@@H](Cc1ccc(O)cc1)C(N)=O)[C@@H](C)CC)C(C)C)[C@@H](C)O [Adrenomedullin]
- Palpitation (cardiovascular disorders) ([1]; AM 5 ng/kg/min, n = 5): 0
- Rash ([1]; AM 5 ng/kg/min, n = 5): 0
- Headache (nervous system disorders) ([1]; AM 5 ng/kg/min, n = 5): 3 (60%)
- Increase of transaminase ([1]; AM 5 ng/kg/min, n = 5): 0
- Muscle pain, back pain ([1]; AM 5 ng/kg/min, n = 5): 0
- Any adverse events ([1]; AM 5 ng/kg/min, n = 5, n = 7): 4 (80%)
- Decrease of blood pressure (cardiovascular disorders) ([1]; AM 10 ng/kg/min, n = 7): 1 (14%)
- Flushing (cardiovascular disorders) ([1]; AM 10 ng/kg/min, n = 7): 0
- Gastrointestinal disorders ([1]; AM 10 ng/kg/min, n = 7): 0
- Head disconfort (nervous system disorders) ([1]; AM 10 ng/kg/min, n = 7): 1 (14%)
- Palpitation (cardiovascular disorders) ([1]; AM 10 ng/kg/min, n = 7): 0
- Rash ([1]; AM 10 ng/kg/min, n = 7): 0
- Headache (nervous system disorders) ([1]; AM 10 ng/kg/min, n = 7): 4 (57%)
- Increase of transaminase ([1]; AM 10 ng/kg/min, n = 7): 0
- Muscle pain, back pain ([1]; AM 10 ng/kg/min, n = 7): 0
- Any adverse events ([1]; AM 10 ng/kg/min, n = 7): 6 (86%)
- Decrease of blood pressure (cardiovascular disorders) ([1]; AM 15 ng/kg/min, n = 7): 1 (14%)
- Flushing (cardiovascular disorders) ([1]; AM 15 ng/kg/min, n = 7): 2 (29%)
- Gastrointestinal disorders ([1]; AM 15 ng/kg/min, n = 7): 0
- Head disconfort (nervous system disorders) ([1]; AM 15 ng/kg/min, n = 7): 2 (29%)
- Palpitation (cardiovascular disorders) ([1]; AM 15 ng/kg/min, n = 7): 1 (14%)
- Rash ([1]; AM 15 ng/kg/min, n = 7): 1 (14%)
- Headache (nervous system disorders) ([1]; AM 15 ng/kg/min, n = 7): 4 (57%)
- Increase of transaminase ([1]; AM 15 ng/kg/min, n = 7): 1 (14%)
- Muscle pain, back pain ([1]; AM 15 ng/kg/min, n = 7): 0
- Any adverse events ([1]; AM 15 ng/kg/min, n = 7): 6 (86%)
- Severe adverse events ([1]; AM 5 ng/kg/min, n = 5): 0
- Serious adverse events ([1]; AM 5 ng/kg/min, n = 5): 0
- Severe adverse events ([1]; AM 10 ng/kg/min, n = 7): 0
- Serious adverse events ([1]; AM 10 ng/kg/min, n = 7): 0
- Severe adverse events ([1]; AM 15 ng/kg/min, n = 7): 0
- Serious adverse events ([1]; AM 15 ng/kg/min, n = 7): 0
